According to PubChem BioAssay AID330 (DTP/NCI, 2004):
“And” between values parts separate entries of the source, which are not always exact repeats. Identical values can stand only once. Inconclusive results and toxic doses are left out. Rule for the calls: active = survival T/C of 150% or more; inactive = T/C below 125% in these data.

Test system: P388 leukemia ip, CD2F1 mice, survival T/C
Test: NCI In Vivo Anticancer Drug Screen. Data for tumor model P388 Leukemia (intraperitoneal) in CD2F1 (CDF1) mice
Conditions: endpoint: median survival time, higher = longer survival
Outline: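 Mice carrying the transplanted tumor received test compound or vehicle. Survival was recorded in each group, and the value is the treated-group measurement divided by that of the vehicle-treated control group.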

[1] = dose: 100.0 mg/kg/injection, schedule: Q01DX009 (ip), vehicle: Klucel (hydroxypropylcellulose) (HPC)
[2] = dose: 200.0 mg/kg/injection, schedule: Q01DX009 (ip), vehicle: Klucel (hydroxypropylcellulose) (HPC)
[3] = dose: 50.0 mg/kg/injection, schedule: Q01DX009 (ip), vehicle: saline
[4] = dose: 100.0 mg/kg/injection, schedule: Q01DX009 (ip), vehicle: saline
[5] = dose: 200.0 mg/kg/injection, schedule: Q01DX009 (ip), vehicle: saline
[6] = dose: 50.0 mg/kg/injection, schedule: Q01DX005 (ip), vehicle: Klucel (hydroxypropylcellulose) (HPC)
[7] = dose: 100.0 mg/kg/injection, schedule: Q01DX005 (ip), vehicle: Klucel (hydroxypropylcellulose) (HPC)
[8] = dose: 50.0 mg/kg/injection, schedule: Q01DX005 (ip), vehicle: saline with Tween-80
[9] = dose: 100.0 mg/kg/injection, schedule: Q01DX005 (ip), vehicle: saline with Tween-80
[10] = dose: 200.0 mg/kg/injection, schedule: Q01DX005 (ip), vehicle: saline with Tween-80
[11] = dose: 100.0 mg/kg/injection, schedule: Q01DX001 (ip), vehicle: saline with Tween-80
[12] = dose: 200.0 mg/kg/injection, schedule: Q01DX001 (ip), vehicle: saline with Tween-80
[13] = dose: 400.0 mg/kg/injection, schedule: Q01DX001 (ip), vehicle: saline with Tween-80
[14] = dose: 25.0 mg/kg/injection, schedule: Q01DX009 (ip), vehicle: saline with Tween-80
[15] = dose: 50.0 mg/kg/injection, schedule: Q01DX009 (ip), vehicle: saline with Tween-80
[16] = dose: 100.0 mg/kg/injection, schedule: Q01DX009 (ip), vehicle: saline with Tween-80

Measured: T/C

C1=NOC2c3ccc4ccccc4c3CCC12 (stereo unspecified)
inactive: [1] 100 % of control | [2] 95 % of control | dose: 400.0 mg/kg/injection, schedule: Q01DX009 (ip), vehicle: Klucel (hydroxypropylcellulose) (HPC) 100 % of control

CCOC(=O)c1c2c(n(-c3ccccc3)c1C)C(=O)c1ccccc1C2=O
inactive: [3] 99 % of control | [4] 92 % of control | [5] 98 % of control

COc1cc2c(cc1OC)C(Cc1cccs1)=NCC2
inactive: [6] 100 % of control | [7] 94 % of control

CC(C)(O)C#C[Si](C)(C)C
inactive: [8] 98 % of control | [9] 103 % of control | [10] 94 % of control

CC(C)(F)c1nc2ncncc2[nH]c1=O
inactive: [11] 103 % of control | [12] 103 % of control | [13] 93 % of control

CC1[C@@H]2C[C@@H]3O[C@@]34[C@H]3CCC5Cc6nc7c(nc6C[C@@]5(C)C3(O)CC(=O)[C@@]24CO[C@]12OC(C)(C)CC2O)CC1CC[C@@H]2C3=C[C@H]4O[C@@]5(O[C@@](C)(CO)C[C@@H]5O)C(C)[C@@]4(O)[C@]3(C)[C@@H](O)CC2[C@]1(C)C7 (stereo partly specified)
inactive: dose: 12.5 micrograms/kg/injection, schedule: Q01DX009 (ip), vehicle: saline + alcohol 107 % of control | dose: 25.0 micrograms/kg/injection, schedule: Q01DX009 (ip), vehicle: saline + alcohol 109 % of control | dose: 50.0 micrograms/kg/injection, schedule: Q01DX009 (ip), vehicle: saline + alcohol 114 % of control | dose: 100.0 micrograms/kg/injection, schedule: Q01DX009 (ip), vehicle: saline + alcohol 116 % of control

CCOC(=N)Cc1ccccc1
inactive: [14] 103 % of control | [15] 94 % of control | [16] 101 % of control | dose: 200.0 mg/kg/injection, schedule: Q01DX009 (ip), vehicle: saline with Tween-80 100 % of control

CN(C)/N=C/C=C1\N=C(c2ccccc2)OC1=O
inactive: [8] 107 % of control | [9] 104 % of control | [10] 106 % of control

Cc1ccc(S(C)(=N)=O)c(N)c1 (stereo unspecified)
inactive: dose: 50.0 mg/kg/injection, schedule: Q01DX005 (ip), vehicle: acetone 99 % of control | dose: 100.0 mg/kg/injection, schedule: Q01DX005 (ip), vehicle: acetone 99 % of control | dose: 200.0 mg/kg/injection, schedule: Q01DX005 (ip), vehicle: acetone 100 % of control

CCOc1ccc(NC(=O)c2c(C)nc(-c3ccccc3)nc2Nc2ccc(Cl)cc2)cc1
inactive: dose: 60.0 mg/kg/injection, schedule: Q01DX005 (ip), vehicle: saline with Tween-80 90 % of control | dose: 120.0 mg/kg/injection, schedule: Q01DX005 (ip), vehicle: saline with Tween-80 90 % of control | dose: 240.0 mg/kg/injection, schedule: Q01DX005 (ip), vehicle: saline with Tween-80 94 % of control

Brc1ccc2c(ccc3c2nnc2nccn23)c1
inactive: dose: 60.0 mg/kg/injection, schedule: Q01DX005 (ip), vehicle: Klucel (hydroxypropylcellulose) (HPC) 91 % of control and 95 % of control | dose: 120.0 mg/kg/injection, schedule: Q01DX005 (ip), vehicle: Klucel (hydroxypropylcellulose) (HPC) 97 % of control | dose: 240.0 mg/kg/injection, schedule: Q01DX005 (ip), vehicle: Klucel (hydroxypropylcellulose) (HPC) 86 % of control and 94 % of control

Cc1cc([N+](=O)[O-])c([N+](=O)[O-])cc1Cl
inactive: dose: 50.0 mg/kg/injection, schedule: Q01DX001 (ip), vehicle: other 100 % of control | dose: 100.0 mg/kg/injection, schedule: Q01DX001 (ip), vehicle: other 100 % of control | dose: 200.0 mg/kg/injection, schedule: Q01DX001 (ip), vehicle: other 105 % of control

CCOC(=O)CCCCCNC(=O)N1c2c(nc(N)[nH]c2=O)NCC1CNc1ccc(C(=O)NC(CCC(=O)O)C(=O)O)cc1 (stereo unspecified)
inactive: dose: 100.0 mg/kg/injection, schedule: Q01DX009 (ip), vehicle: sodium bicarbonate 97 % of control | dose: 200.0 mg/kg/injection, schedule: Q01DX009 (ip), vehicle: sodium bicarbonate 91 % of control | dose: 400.0 mg/kg/injection, schedule: Q01DX009 (ip), vehicle: sodium bicarbonate 97 % of control

Clc1ccc(-n2nnc3cc(Cl)ccc32)c(Cl)c1
inactive: dose: 6.25 mg/kg/injection, schedule: Q01DX005 (ip), vehicle: saline with Tween-80 86 % of control and 96 % of control | dose: 12.5 mg/kg/injection, schedule: Q01DX005 (ip), vehicle: saline with Tween-80 94 % of control | dose: 25.0 mg/kg/injection, schedule: Q01DX005 (ip), vehicle: saline with Tween-80 90 % of control and 91 % of control | [14] 103 % of control | [15] 97 % of control | [16] 101 % of control

NC(CCP(=O)(O)O)C(=O)O (stereo unspecified)
inactive: dose: 50.0 mg/kg/injection, schedule: Q01DX005 (ip), vehicle: saline 107 % of control | dose: 100.0 mg/kg/injection, schedule: Q01DX005 (ip), vehicle: saline 97 % of control | dose: 100.0 mg/kg/injection, schedule: Q04DX002 (ip), vehicle: saline with Tween-80 100 % of control | dose: 200.0 mg/kg/injection, schedule: Q01DX005 (ip), vehicle: saline 92 % of control | dose: 200.0 mg/kg/injection, schedule: Q04DX002 (ip), vehicle: saline with Tween-80 87 % of control | dose: 400.0 mg/kg/injection, schedule: Q04DX002 (ip), vehicle: saline with Tween-80 89 % of control

FC(F)(F)c1ccccc1NC(=S)N1CCN(c2ccccc2)CC1
inactive: dose: 50.0 mg/kg/injection, schedule: Q01DX009 (ip), vehicle: gum acacia 109 % of control | dose: 100.0 mg/kg/injection, schedule: Q01DX009 (ip), vehicle: gum acacia 100 % of control | dose: 200.0 mg/kg/injection, schedule: Q01DX009 (ip), vehicle: gum acacia 92 % of control

CC(C)C1=CC23CCC4C(C)(C(=O)O)CCCC4(C)C2CC1OO3 (stereo unspecified)
inactive: dose: 100.0 mg/kg/injection, schedule: Q01DX009 (ip), vehicle: saline sonified 95 % of control | dose: 200.0 mg/kg/injection, schedule: Q01DX009 (ip), vehicle: saline sonified 100 % of control | dose: 400.0 mg/kg/injection, schedule: Q01DX009 (ip), vehicle: saline sonified 100 % of control

C1=Cc2ccccc2C(c2ccccc2)S1 (stereo unspecified)
inactive: [3] 98 % of control | [4] 88 % of control | [5] 93 % of control | dose: 400.0 mg/kg/injection, schedule: Q01DX009 (ip), vehicle: saline 89 % of control

O=C1Nc2c(ccc3c2NCCC3)C2CCCC12 (stereo unspecified)
inactive: [11] 94 % of control | [12] 94 % of control | [13] 90 % of control

CCOP(O)(=S)OCC.[Tb]
inactive: dose: 100.0 mg/kg/injection, schedule: Q04DX003 (ip), vehicle: Klucel (hydroxypropylcellulose) (HPC) 92 % of control | dose: 200.0 mg/kg/injection, schedule: Q04DX003 (ip), vehicle: Klucel (hydroxypropylcellulose) (HPC) 87 % of control | dose: 400.0 mg/kg/injection, schedule: Q04DX003 (ip), vehicle: Klucel (hydroxypropylcellulose) (HPC) 90 % of control

COc1ccc2c(c1CCl)C(=O)OC2
inactive: dose: 12.5 mg/kg/injection, schedule: Q01DX009 (ip), vehicle: saline with Tween-80 96 % of control | [14] 111 % of control | [15] 101 % of control and 89 % of control

CC(=O)NC(N)=NC#N
inactive: dose: 50.0 mg/kg/injection, schedule: Q01DX001 (ip), vehicle: saline 98 % of control | dose: 100.0 mg/kg/injection, schedule: Q01DX001 (ip), vehicle: saline 100 % of control | dose: 200.0 mg/kg/injection, schedule: Q01DX001 (ip), vehicle: saline 96 % of control | dose: 400.0 mg/kg/injection, schedule: Q01DX001 (ip), vehicle: saline 103 % of control

CC(=N)C(C#N)C(=S)SCCC#N (stereo unspecified)
inactive: dose: 50.0 mg/kg/injection, schedule: Q01DX009 (ip), vehicle: Klucel (hydroxypropylcellulose) (HPC) 97 % of control | [1] 89 % of control | [2] 106 % of control

Cc1ccsc1C(=O)c1ccccc1[N+](=O)[O-]
inactive: [6] 94 % of control | [7] 94 % of control | dose: 200.0 mg/kg/injection, schedule: Q01DX005 (ip), vehicle: Klucel (hydroxypropylcellulose) (HPC) 100 % of control
